Literature values as cited in article PMC11860437, “Gold Nanoparticles as a Platform for Delivery of Immunogenic Peptides to THP-1 Derived Macrophages: Insights into Nanotoxicity” (Vaccines, 2025).

What was measured:
[1] = tested on: K562 human erythroleukemia cells
Source text: (§1) The cytotoxicity of p-Au68 was particularly high when conjugated with peptides p2 (~30–50% cell death) and p4 (~40–60% cell death). […] These peptides differ from each other by the presence of the arginine-rich TAT peptide (YGRKKRRQRRR). It is noteworthy that pTAT-functionalized NPs are considered a promising approach to overcome ...

HeLa, A549, and CHO = conditions: three cell lines (HeLa, A549, and CHO)
Source text: as §1

For YGRKKRRQRRR [pTAT], the membrane toxicity [1] is given as “completely innocuous” and the toxicity (HeLa, A549, and CHO) is given as “low toxicity”.
